Measurements from ChEMBL document CHEMBL4422633, “Antioxidant-Inspired Drug Discovery: Antitumor Metabolite Is Formed in Situ from a Hydroxycinnamic Acid Derivative upon Free-Radical Scavenging” (J Med Chem, 2019).
Active and inactive are the calls of the source. The calls are words filed in the database; no cut-off is given here.

Assays:
A549 [1] = experiment: Induction of apoptosis in human A549 cells assessed as necrotic cells at 10 uM after 24 hrs by Annexin V/propidium iodide-staining based flow cytometry (reference value: 1.52 +/- 0.05%); assay type: functional
HaCaT [2] = experiment: Induction of DNA damage response in human HaCaT cells assessed as increase in H2AX expression at 10 uM after 24 hrs by alexa fluor 488-staining based flow cytometry; assay type: cell-based
[3] = Induction of apoptosis in human NCI-H460/R cells transfected with MDR assessed as early apoptotic cells at 10 uM after 24 hrs by Annexin V/propidium iodide-staining based flow cytometry (reference value: 0.22 +/- 0.01%); assay type: functional
MCF7 = experiment: Cytotoxicity against human MCF7 cells assessed as reduction in cell viability after 72 hrs by MTT assay; assay type: functional, cell-based; settings: MCF7, 72 h
NCI-H661 [4] = experiment: Induction of apoptosis in human NCI-H661 cells assessed as viable cells at 10 uM after 24 hrs by Annexin V/propidium iodide-staining based flow cytometry (reference value: 96.16 +/- 0.96%); assay type: functional; settings: NCI-H661, 24 h, read-out: Activity
NCI-H661 [5] = experiment: Induction of ROS generation in human NCI-H661 cells assessed as increase DHE positive cells at 10 uM after 24 hrs by DHE-staining based flow cytometry; assay type: functional, cell-based
[6] = Drug level using p-coumaric acid methyl ester assessed as compound formation by reverse phase-HPLC and HPLC-MS analysis based Fenton reaction assay; assay type: physicochemical
[7] = Induction of apoptosis in human NCI-H460/R cells transfected with MDR assessed as viable cells at 10 uM after 24 hrs by Annexin V/propidium iodide-staining based flow cytometry (reference value: 95.76 +/- 2.87%); assay type: functional; settings: NCI-H460, 24 h, read-out: Activity
NCI-H661 [8] = experiment: Induction of apoptosis in human NCI-H661 cells assessed as early apoptotic cells at 10 uM after 24 hrs by Annexin V/propidium iodide-staining based flow cytometry (reference value: 0.31 +/- 0.01%); assay type: functional
HaCaT [9] = experiment: Induction of apoptosis in human HaCaT cells assessed as early apoptotic cells at 10 uM after 24 hrs by Annexin V/propidium iodide-staining based flow cytometry (reference value: 0.23 +/- 0.01%); assay type: cell-based
HaCaT [10] = experiment: Cytotoxicity against human HaCaT cells assessed as reduction in cell viability after 72 hrs by MTT assay; assay type: cell-based
HaCaT [11] = experiment: Induction of apoptosis in human HaCaT cells assessed as necrotic cells at 10 uM after 24 hrs by Annexin V/propidium iodide-staining based flow cytometry (reference value: 1.88 +/- 0.02%); assay type: cell-based
[12] = Cytotoxicity against mouse L5178 cells assessed as reduction in cell viability after 72 hrs by MTT assay; assay type: functional, cell-based; settings: L5178, 72 h
Homo sapiens [13] = species: Homo sapiens; experiment: Induction of DNA damage response in human NCI-H460/R cells transfected with MDR assessed as increase in H2AX expression at 10 uM after 24 hrs by alexa fluor 488-staining based flow cytometry; assay type: functional, cell-based
[14] = Induction of apoptosis in human NCI-H460/R cells transfected with MDR assessed as necrotic cells at 10 uM after 24 hrs by Annexin V/propidium iodide-staining based flow cytometry (reference value: 3.17 +/- 0.13%); assay type: functional
[15] = Induction of apoptosis in human NCI-H460/R cells transfected with MDR assessed as late apoptotic cells at 10 uM after 24 hrs by Annexin V/propidium iodide-staining based flow cytometry (reference value: 0.84 +/- 0.01%); assay type: functional
[16] = Induction of apoptosis in human HaCaT cells assessed as viable cells at 10 uM after 24 hrs by Annexin V/propidium iodide-staining based flow cytometry (reference value: 95.63 +/- 3.83%); assay type: cell-based; settings: read-out: Activity
A549 [17] = experiment: Induction of apoptosis in human A549 cells assessed as early apoptotic cells at 10 uM after 24 hrs by Annexin V/propidium iodide-staining based flow cytometry (reference value: 0.48 +/- 0.01%); assay type: functional
A549 [18] = experiment: Cytotoxicity against human A549 cells assessed as reduction in cell viability after 72 hrs by MTT assay; assay type: functional, cell-based; settings: A549, 72 h
[19] = Cytotoxicity against mouse L5178B1 cells transfected with pHa MDR1/A retrovirus assessed as reduction in cell viability after 72 hrs by MTT assay; assay type: functional, cell-based; settings: MDR1, 72 h
Homo sapiens [20] = species: Homo sapiens; experiment: Induction of ROS generation in human NCI-H460/R cells transfected with MDR assessed as increase DHE positive cells at 10 uM after 24 hrs by DHE-staining based flow cytometry; assay type: functional, cell-based
SiHa = experiment: Cytotoxicity against human SiHa cells assessed as reduction in cell viability after 72 hrs by MTT assay; assay type: functional, cell-based
[21] = target: T1, Serine/threonine-protein kinase Chk1 (Homo sapiens) (UniProt O14757); experiment: Inhibition of CHK1 phosphorylation at S345 in human MCF7 cells at 10 uM pretreated for 30 mins followed by 10 J/m'2 irradiation and measured after 1 hr by Western blot analysis; assay type: cell-based
T1 sequence (whole entry): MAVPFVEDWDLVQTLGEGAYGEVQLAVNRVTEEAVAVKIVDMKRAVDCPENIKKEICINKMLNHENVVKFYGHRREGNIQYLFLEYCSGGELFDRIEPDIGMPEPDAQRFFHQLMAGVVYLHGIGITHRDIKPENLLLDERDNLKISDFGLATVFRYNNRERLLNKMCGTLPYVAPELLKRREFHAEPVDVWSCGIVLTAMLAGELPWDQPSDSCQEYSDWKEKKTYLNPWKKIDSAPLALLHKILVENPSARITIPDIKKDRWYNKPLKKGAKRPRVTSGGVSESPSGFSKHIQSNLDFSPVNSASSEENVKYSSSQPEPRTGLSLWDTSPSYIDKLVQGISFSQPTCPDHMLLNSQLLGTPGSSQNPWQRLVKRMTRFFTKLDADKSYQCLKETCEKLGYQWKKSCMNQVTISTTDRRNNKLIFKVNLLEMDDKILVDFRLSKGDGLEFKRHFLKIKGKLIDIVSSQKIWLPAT

A549 [22] = experiment: Induction of ROS generation in human A549 cells assessed as increase DHE positive cells at 10 uM after 24 hrs by DHE-staining based flow cytometry; assay type: functional, cell-based
NCI-H460 [23] = experiment: Induction of DNA damage response in human NCI-H460 cells assessed as increase in H2AX expression at 10 uM after 24 hrs by alexa fluor 488-staining based flow cytometry; assay type: functional, cell-based
NCI-H460 [24] = experiment: Induction of DNA damage response in human NCI-H460 cells transfected with MDR assessed as increase in H2AX expression at 10 uM after 24 hrs by alexa fluor 488-staining based flow cytometry; assay type: functional, cell-based
NCI-H661 [25] = experiment: Cytotoxicity against human NCI-H661 cells assessed as reduction in cell viability after 72 hrs by MTT assay; assay type: functional, cell-based; settings: NCI-H661, 72 h
[26] = Cytotoxicity against human NCI-H460/R cells transfected with MDR assessed as reduction in cell viability after 72 hrs by MTT assay; assay type: functional, cell-based; settings: NCI-H460, 72 h
A549 [27] = experiment: Induction of apoptosis in human A549 cells assessed as late apoptotic cells at 10 uM after 24 hrs by Annexin V/propidium iodide-staining based flow cytometry (reference value: 1.54 +/- 0.03%); assay type: functional

With `COC(=O)/C=C/C1(O)C=CC(=O)C=C1` as the compound, how does the Activity (A549 [1]) read?
The Activity was 2.57%.

What about the Activity (HaCaT [2]) of the same compound?
The Activity was “Non-Toxic”.

And the Activity [3]?
The Activity was 0.12%.

What about the IC50 (MCF7) of the same compound?
The IC50 was 6.22 µM.

What about the viability at 10 µM (NCI-H661 [4]) of the same compound?
The viability at 10 µM was 45.4%.

And the Activity (NCI-H661 [5])?
Its Activity is “Active”.

And the Drug uptake [6]?
Its Drug uptake is “Active”.

And the viability at 10 µM [7]?
The viability at 10 µM was 90%.

And the Activity (NCI-H661 [8])?
The Activity was 0.18%.

What about the Activity (HaCaT [9]) of the same compound?
The Activity was 0.44%.

And the IC50 (HaCaT [10])?
Its IC50 is 4.05 µM.

What about the Activity (HaCaT [11]) of the same compound?
The Activity was 5.21%.

And the IC50 [12]?
Its IC50 is 0.46 µM.

And the Activity (Homo sapiens [13])?
The Activity was “Active”.

What about the Activity [14] of the same compound?
Its Activity is 7.51%.

What about the Activity [15] of the same compound?
The Activity was 2.34%.

And the viability at 24 h, 10 µM [16]?
Its viability at 24 h, 10 µM is 91.5%.

And the Activity (A549 [17])?
Its Activity is 0.72%.

And the IC50 (A549 [18])?
The IC50 was 4.32 µM.

And the IC50 [19]?
The IC50 was 0.62 µM.

What about the Activity (Homo sapiens [20]) of the same compound?
The Activity was “inactive”.

What about the IC50 (SiHa) of the same compound?
The IC50 was 8.89 µM.

And the inhibition [21]?
Its inhibition is “Active”.

What about the Activity (A549 [22]) of the same compound?
The Activity was “Active”.

And the Activity (NCI-H460 [23])?
The Activity was “Active”.

And the Activity (NCI-H460 [24])?
Its Activity is “Active”.

What about the IC50 (NCI-H661 [25]) of the same compound?
Its IC50 is 1.44 µM.

And the IC50 [26]?
The IC50 was 2.06 µM.

And the Activity (A549 [27])?
The Activity was 3.93%.
